Experimental data reported in patent publication US20040023884A1, “Biologically active peptides from functional domains of bactericidal/permeability-increasing protein and uses thereof” (priority 1993, published 2004).
“Also recorded” adds a separate entry of the source. Ends that are not written are not given here.

Experiments:
RAW 264.7 cells = assay: LPS neutralization cellular proliferation assay, RAW 264.7 cells; format: cell-based, mouse
Outline: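 Mouse RAW 264.7 cells were primed 24 h with 50U/mL mouse γ-interferon, then exposed about 15 h to E. coli O113 LPS in serum-free RPMI with or without BPI peptides at 25 ng/mL–50 μg/mL. Proliferation was quantified by [^3H]-thymidine uptake, 1 μCi/well, added at 5 h.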

[1] = system: E. coli 0111:B4 (smooth) bacteria; assay: Radial diffusion bactericidal assay, E. coli 0111:B4; format: cell-based; settings: radial diffusion; for bactericidal activity (in words): E. coli 0111:B4; for pmol added to well to achieve a 30 mm^2 bactericidal zone, E. coli O111:B4: PROBIT analysis, E. coli O111:B4 (smooth)
[2] = Lipid A binding competition with [125I]-rLBP; settings: for IC50: read-out: IC50 (inhibition of Lipid A binding of radiolabeled rLBP)
Description: A second binding assay was developed, wherein radiolabeled recombinant LPS binding protein ([^125I]-rLBP) was used instead of radiolabeled rBPI23 in competition experiments with BPI functional domain peptides BPI.2, BPI.3, BPI.4, BPI.5, BPI.7, BPI.13, BPI.14, BPI.29, BPI.30 and BPI.48, rBPI, rBPI21Δcys, and rLBP25 were included in these assays as controls. In these experiments, Lipid A was adsorbed to the wells at a concentration of 0.7 μg/mL in methanol. Incubation of radiolabeled rLBP (a total of 650,000 cpm and a specific activity of 3.45 μCi/μg) was performed for 2.5 hr at 37° C. in the presence of BPI peptides in a series of increasing concentrations. IC50 values (i.e., the concentration at which Lipid A binding of radiolabeled rLBP25 is inhibited to one half the value achieved in the absence of the peptide) are shown in accompanying Table XI.

[3] = 3H-heparin binding assay (affinity and capacity); settings: for Heparin Capacity: heparin bound at saturation; for Kd: read-out: Heparin Affinity
Outline: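 Bound 3H-heparin was counted by liquid scintillation after 1 h incubation at 4 °C with fragments immobilised on PVDF-bottomed wells, then washing in blocking buffer. Signal was corrected for BSA-related background, and varying amounts of rBPI23 were used as positive control.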

Staphylococcus aureus = assay: Radial diffusion bactericidal assay, Staphylococcus aureus; format: cell-based; settings: for pmol added to well to achieve a 30 mm^2 bactericidal zone, S. aureus: radial diffusion, PROBIT analysis; for bactericidal activity (in words): FIG. 10e
[4] = system: rough mutant E. coli J5 bacteria; assay: Radial diffusion bactericidal assay, E. coli J5; format: cell-based; settings: for pmol added to well to achieve a 30 mm^2 bactericidal zone, E. coli J5 / bactericidal activity (in words): radial diffusion; for pmol added to well to achieve a 30 mm^2 bactericidal zone, E. coli J5: PROBIT analysis, E. coli J5 (rough); for bactericidal activity (in words): E. coli J5
Outline: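 Log-phase bacteria, washed in 10 mM sodium phosphate pH 7.4, were seeded at 4×10^6 CFU/mL in underlayer agarose. BPI fragments (5 or 10 μL) went into 3 mm wells for 3 h at 37° C., then overlayer agarose was added. After overnight 37° C. incubation, clearing zones were measured by micrometer.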

[5] = system: LPS-induced TNF production in whole blood; assay: Inhibition of LPS-induced TNF production in whole blood; format: cell-based; settings: LPS-induced TNF production in human whole blood, E. coli 0113 LPS, 4 h at 37° C.
Description: LPS neutralization by BPI functional domain peptides of the invention was assayed in whole blood as follows. Freshly drawn blood from healthy human donors was collected into vacutainer tubes (ACD, Rutherford, N.J.) Aliquots of blood (170 μL) were mixed with 10 μL Ca^++-, Mg^++-free PBS containing 2.5 ng/mL E. coli 0113 LPS, and with 20 μL of varying concentrations of the BPI peptides of the invention ranging in concentration from 0.5-50 μg/mL. These mixtures were then incubated for 4 h at 37° C., and then the reaction stopped by the addition of 55 μL ice-cold Ca^++-, Mg^++-free PBS, followed by centrifugation at 500×g for 7 min. Supernatants were then assayed for TNF levels using a commercial ELISA kit (Biokine™ ELISA Test, T-cell Sciences, Cambridge. MA).

Row | Substance | IC50 (peptide concentration at which RAW cell growth was inhibited by 50%) (RAW 264.7 cells) | bactericidal activity (in words) [1] | pmol added to well to achieve a 30 mm^2 bactericidal zone, E. coli O111:B4 [1] | IC50 (inhibition of Lipid A binding of radiolabeled rLBP) [2] [mg/L] | IC50 [2] [µM] | heparin binding activity (in words) [3] | heparin binding capacity (in words) [3] | Heparin Capacity [3] [ng] | Kd [3] [µM] | pmol added to well to achieve a 30 mm^2 bactericidal zone, S. aureus (Staphylococcus aureus) | pmol added to well to achieve a 30 mm^2 bactericidal zone, E. coli J5 [4] | EC50 (peptide concentration at which the growth inhibitory effect of LPS was reversed by 50%) (RAW 264.7 cells) [mg/L] | bactericidal activity (in words) (Staphylococcus aureus) | concentration above which appreciable bactericidal activity was shown [4] | IC50 TNF assay [5] | bactericidal activity (in words) [4]
1 | IKISGKWKAQKRFLK [BPI.2] | — (No proliferation decrease up to 50 μg/ml) | exhibited bactericidal activity | b (no detectable activity up to 5 μg/well) | 2.36 | 1.3 | little or no heparin binding activity | low heparin binding capacity | 203.6 | 0.347 | b (no detectable activity up to 5 μg/well) | 3,001.50 pmol | – | – | – | – | –
2 | KSKVGWLIQLFHKK-NH2 (C-terminus assumed) [BPI.13] | – | – | 5,857.40 pmol | 1.7 | 1 | – | – | 369.1 | 0.985 | 5,341.27 pmol | 440.80 pmol | 1.9 ± 0.4 | low levels of activity | greater than 30 μg/mL | 42 mg/L | –
3 | KSKVGWLIQLFHKKKSKVGWLIQLFHKK-NH2 (C-terminus assumed) [BPI.29] | 13.6 ± 0.4 mg/L | – | – | 0.44 | 0.13 | – | extremely high heparin capacity | 463.7 | 0.427 | 15,508.98 pmol | 441.60 pmol | 0.1 ± 0.02 | moderate levels of activity | – | 5.0 mg/L | greater bactericidal activity; also recorded: highly bactericidal
4 | KWKAAARFLKKWKAAARFLK [BPI.48] | 5.0 ± 0.1 mg/L | – | 253.54 pmol | 0.48 | 0.2 | – | extremely high heparin capacity | 442.3 | 1.42 | 4,089.14 pmol | 42.40 pmol | 1.3 ± 0.9 | – | – | – | highly bactericidal
5 | KWKAQKRFLKKSKVGWLIQLFHKK-NH2 (C-terminus assumed) [BPI.30] | 10.5 ± 1.2 mg/L | – | 608.20 pmol | 0.75 | 0.25 | – | extremely high heparin capacity | 499.4 | 0.592 | 1,216.37 pmol | 76.38 pmol | 1.2 ± 1.1 | highest amount of bactericidal activity | – | – | highest bactericidal activity; also recorded: highly bactericidal
6 | KWKAQKRFLKKWKAQKRFLK-NH2 (C-terminus assumed) [BPI.7] | – | exhibited bactericidal activity | 2,072.10 pmol | 0.26 | 0.1 | – | extremely high heparin binding capacity | 405.6 | 0.908 | 3,769.60 pmol | 175.40 pmol | >50 | low levels of activity | – | Not Inhibitory | exhibited bactericidal activity; also recorded: high levels of bactericidal activity; also recorded: highly bactericidal
7 | NVGLKFSISNANIKISGKWKAQKRFLK [BPI.3] | – | exhibited bactericidal activity | b (no detectable activity up to 5 μg/well) | 0.75 | 0.25 | moderate heparin binding activity | – | 264.5 | 0.781 | – | 695.78 pmol | – | – | – | – | exhibited bactericidal activity
